This assay has as its target T1, Nuclear receptor ROR-gamma (Homo sapiens, UniProt P51449).
T1 sequence (P51449 whole entry): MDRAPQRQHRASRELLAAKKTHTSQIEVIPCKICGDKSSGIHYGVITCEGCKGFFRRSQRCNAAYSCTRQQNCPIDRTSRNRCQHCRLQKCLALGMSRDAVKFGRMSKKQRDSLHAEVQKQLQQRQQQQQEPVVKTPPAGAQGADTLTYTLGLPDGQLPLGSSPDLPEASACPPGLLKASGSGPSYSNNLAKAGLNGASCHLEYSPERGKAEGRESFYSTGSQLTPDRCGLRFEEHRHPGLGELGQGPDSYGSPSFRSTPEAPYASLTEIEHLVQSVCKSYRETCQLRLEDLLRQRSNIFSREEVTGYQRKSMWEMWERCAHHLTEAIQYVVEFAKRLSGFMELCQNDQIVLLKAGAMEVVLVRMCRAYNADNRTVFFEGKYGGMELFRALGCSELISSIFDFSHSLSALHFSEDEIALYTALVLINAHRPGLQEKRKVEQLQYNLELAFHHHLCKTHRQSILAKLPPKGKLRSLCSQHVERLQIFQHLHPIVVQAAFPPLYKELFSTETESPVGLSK
Description: Radio-Ligand Binding Assay: ROR gamma radioligand binding was performed using 3H 25-Hydroxycholesterol in a competitive displacement assay using dextran charcoal method. Using 5 nM 3H 25-Hydroxycholesterol with 300 ng RORγ LBD (in house expressed in E. coli) along with the compound were incubated in the binding buffer (50 mM HEPES, pH 7.5, 150 mM NaCl, 0.01% BSA and 5 mM MgCl2) for 30 min at room temperature. Then dextran-charcoal mixture (0.5% charcoal: 0.05% dextran) was used for separation and the supernatant was read on the Perkin Elmer Trilux Microbeta counter. Dose response curves were generated for 10 compound concentrations using GraphPad Prism software Version 5 (San Diego, Calif., USA) using non-linear regression curve fit for sigmoidal dose response (variable slope).

Consider `CCS(=O)(=O)c1ccc(CC(=O)Nc2cc(C)c3c(n2)CCC(C)(c2ccc(OC)nn2)C3=O)cc1` (single isomer, unassigned), for which the half-inhibitory concentration (IC50) was over 300 nM.

In general, IC50 refers to the point on the concentration scale where inhibition reaches its midpoint.

Source of the values: ChEMBL document CHEMBL5728937, “Substituted tetrahydroquinolinone compounds as ROR gamma modulators” (2022).
